Assay results taken from patent EP0025842B1, “Peptides, process for their preparation, their pharmaceutical compositions and their intermediates” (FUJISAWA PHARMACEUTICAL CO., LTD., priority 1979, dated 1987).

Legend:
[1] = test system: mice; experiment: Acute toxicity in mice; type: in vivo; details: 1 g/kg (i.v.)
Source text: 7. Acute toxicity in mice of FR-900156 1 g/kg (i.v.): no toxicity

[2] = test system: mouse L cell; experiment: Cell toxicity (mouse L cell); type: cell-based; details: 500 µg/ml

C[C@H](NC(=O)[C@@H](C)O)C(=O)N[C@H](CCC(=O)N[C@@H](CCC[C@@H](N)C(=O)O)C(=O)NCC(=O)O)C(=O)O [FR-900156, D-Lactyl-L-alanyl-γ-D-glutamyl-(L)-mesodiaminopimelyl(L)-glycine]
Acute toxicity in mice [1]: no toxicity | Cell toxicity (mouse L cell) [2]: no toxic effect
